The assay deals with full-length human RORγt (Homo sapiens (Human), UniProt P51449). The assay is described as follows: RORγt (full-length human) reporter assay, Conditions B or C. Type of assay: cell-based. The settings on record: for RORγt (FL) Reporter Assay B or C, % inhibition (value marked *): marked *: footnote not given; for IC50: read-out: RORγt (FL) Reporter Assay B or C, IC50; for inhibition at 6 µM: read-out: RORγt (FL) Reporter Assay B or C, % inhibition @ 6 μM, Conditions B or C. A digest of the protocol:
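HEK293T cells transiently co-transfected with GAL4-DBD–full-length human RORγt (nt 142-1635, NM_001001523.1) plus GAL4-firefly and CMV-Renilla luciferase reporters; compounds added 4-6 h post-transfection for 16-20 h in 1.3% FBS, 0.1% DMSO. Firefly signal normalized to DMSO and saturating reference compound, then to Renilla; IC50 from concentration plots.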
A general note: A reporter such as luciferase makes a cellular process visible.

Like-named read-outs stand apart in the source and are kept apart here.

The source of these data is patent publication US10975068B2, “6-aminopyridin-3-yl thiazoles as modulators of RORγT” (Janssen Pharmaceutica NV, priority 2016, dated 2021).

Sequence of full-length human RORγt (P51449 other isoform, or with tags, fused parts or gaps): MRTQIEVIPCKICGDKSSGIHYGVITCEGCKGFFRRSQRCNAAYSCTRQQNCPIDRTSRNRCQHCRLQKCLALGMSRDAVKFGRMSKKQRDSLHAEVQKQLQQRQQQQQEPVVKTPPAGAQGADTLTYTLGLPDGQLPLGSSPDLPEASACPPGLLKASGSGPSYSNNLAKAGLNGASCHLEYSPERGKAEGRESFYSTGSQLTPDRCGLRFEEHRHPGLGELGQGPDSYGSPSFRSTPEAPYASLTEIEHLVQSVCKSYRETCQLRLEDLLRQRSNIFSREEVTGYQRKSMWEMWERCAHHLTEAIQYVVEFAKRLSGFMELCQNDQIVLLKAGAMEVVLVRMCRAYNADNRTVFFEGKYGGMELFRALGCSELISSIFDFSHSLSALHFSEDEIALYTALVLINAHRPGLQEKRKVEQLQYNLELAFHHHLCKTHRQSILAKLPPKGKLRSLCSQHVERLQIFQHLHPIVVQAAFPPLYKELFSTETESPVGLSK

The IC50 is the concentration at which inhibition is half-maximal. Take `C[C@H]1CCCCN1C(=O)c1nc(C(=O)NCC(C)(C)O)sc1-c1cnc(NCC(C)(C)C)cc1C(F)(F)F` [Example 86, (S)—N-(2-Hydroxy-2-methylpropyl)-4-(2-methylpiperidine-1-carbonyl)-5-(6-(neopentylamino)-4-(trifluoromethyl)pyridin-3-yl)thiazole-2-carboxamide]: for the setting “Conditions B or C”, the “RORγt (FL) Reporter Assay B or C, % inhibition (value marked *)” value (“RORγt … % inhibition (value marked *)” below) is given as 127* % and the IC50 stood at 0.013 µM.
For `C[C@H](NC(=O)c1nc(C(=O)N2CC(F)(F)C[C@@H]2C)c(-c2cnc(N[C@@H](C)C(F)(F)F)cc2C(F)F)s1)C(C)(C)O` [Example 197], in that order: 91* % and 0.066 µM.
In general, inhibition refers to the change of the read-out against control, counted positive when it falls. Take `C[C@H]1CCCCN1C(=O)c1nc(C(=O)NCC(C)(C)O)sc1-c1cnc(NC2CCCC2)cc1C(F)F` [Example 41, (S)-5-(6-(Cyclopentylamino)-4-(difluoromethyl)pyridin-3-yl)-N-(2-hydroxy-2-methylpropyl)-4-(2-methylpiperidine-1-carbonyl)thiazole-2-carboxamide]: the inhibition at 6 µM was 103%. The IC50 (Conditions B or C) was 0.0076 µM.
Turning to `C[C@H](Nc1cc(C(F)(F)F)c(-c2sc(C(=O)NCC(C)(C)O)nc2C(=O)N2CCC[C@@H]2C)cn1)C(F)(F)F` [Example 78, N-(2-Hydroxy-2-methylpropyl)-4-((S)-2-methylpyrrolidine-1-carbonyl)-5-(4-(trifluoromethyl)-6-(((S)-1,1,1-trifluoropropan-2-yl)amino)pyridin-3-yl)thiazole-2-carboxamide], for the setting “Conditions B or C”, the “RORγt … % inhibition (value marked *)” value was 110* % and the IC50 was 0.049 µM.
The like results for `C[C@H](Nc1cc(C(F)(F)F)c(-c2sc(C(=O)NCC(C)(C)O)nc2C(=O)N2CCCC[C@@H]2C)cn1)C(F)(F)F` [Example 47, N-(2-Hydroxy-2-methylpropyl)-4-((S)-2-methylpiperidine-1-carbonyl)-5-(4-(trifluoromethyl)-6-(((S)-1,1,1-trifluoropropan-2-yl)amino)pyridin-3-yl)thiazole-2-carboxamide] were, in that order, 96* % and 0.0054 µM.
For `C[C@H]1CC(F)(F)CN1C(=O)c1nc(C(=O)NCC(C)(C)O)sc1-c1cnc(NC2(C(F)(F)F)CCC2)cc1C(F)F` [Example 124, (S)-4-(4,4-Difluoro-2-methylpyrrolidine-1-carbonyl)-5-(4-(difluoromethyl)-6-((1-(trifluoromethyl)cyclobutyl)amino)pyridin-3-yl)-N-(2-hydroxy-2-methylpropyl)thiazole-2-carboxamide], in that order: 108* % and 0.021 µM.
Turning to `C[C@H](Nc1cc(C(F)F)c(-c2sc(C(=O)NCC(C)(C)O)nc2C(=O)N2CCCC[C@@H]2C)cn1)C1CC1` [Example 37, 5-(6-(((S)-1-Cyclopropylethyl)amino)-4-(difluoromethyl)pyridin-3-yl)-N-(2-hydroxy-2-methylpropyl)-4-((S)-2-methylpiperidine-1-carbonyl)thiazole-2-carboxamide], the inhibition at 6 µM was found to be 92.2%. Besides, the IC50 (Conditions B or C) was determined as 0.014 µM.
As to `CC(C)(O)CNC(=O)c1nc(C(=O)N2C3CCC2CC3)c(-c2cnc(NC3(C)CCC3)cc2C(F)(F)F)s1` [Example 140, 4-((1s,4s)-7-Azabicyclo[2.2.1]heptane-7-carbonyl)-N-(2-hydroxy-2-methylpropyl)-5-(6-((1-methylcyclobutyl)amino)-4-(trifluoromethyl)pyridin-3-yl)thiazole-2-carboxamide], under “Conditions B or C”, the “RORγt … % inhibition (value marked *)” value was 89* % and the IC50 was found to be 0.011 µM.
For `C[C@H](Nc1cc(C(F)(F)F)c(-c2sc(C(=O)NCC(C)(C)O)nc2C(=O)N2C3CCC2CC3)cn1)C1CC1` [Example 51, 4-((1s,4s)-7-Azabicyclo[2.2.1]heptane-7-carbonyl)-5-(6-(((S)-1-cyclopropylethyl)amino)-4-(trifluoromethyl)pyridin-3-yl)-N-(2-hydroxy-2-methylpropyl)thiazole-2-carboxamide], under “Conditions B or C”, the “RORγt … % inhibition (value marked *)” value is 101* % and the IC50 is 0.0048 µM.
For the compound `C[C@H]1CCCN1C(=O)c1nc(C(=O)NC[C@@H](O)C(C)(C)O)sc1-c1cnc(NC(C)(C)C)cc1C(F)(F)F` (single isomer, unassigned) [Example 243, 5-(6-(tert-Butylamino)-4-(trifluoromethyl)pyridin-3-yl)-N—((R*)-2,3-dihydroxy-3-methylbutyl)-4-((S)-2-methylpyrrolidine-1-carbonyl)thiazole-2-carboxamide], under “Conditions B or C”, the “RORγt … % inhibition (value marked *)” value is listed as 95* % and the IC50 was found to be 0.0068 µM.
For `CC[C@H](Nc1cc(C(F)(F)F)c(-c2sc(C(=O)NCC(C)(C)O)nc2C(=O)N2CCC[C@@H]2C)cn1)C(F)(F)F` [Example 111, N-(2-Hydroxy-2-methylpropyl)-4-((S)-2-methylpyrrolidine-1-carbonyl)-5-(6-(((S)-1,1,1-trifluorobutan-2-yl)amino)-4-(trifluoromethyl)pyridin-3-yl)thiazole-2-carboxamide], in that order: 106* % and 0.029 µM.
In the case of `CC(C)(C)CNc1cc(C(F)F)c(-c2sc(C(=O)NCC(C)(C)O)nc2C(=O)N2C3CCC2CC3)cn1` [Example 116, 4-((1s,4s)-7-Azabicyclo[2.2.1]heptane-7-carbonyl)-5-(4-(difluoromethyl)-6-(neopentylamino)pyridin-3-yl)-N-(2-hydroxy-2-methylpropyl)thiazole-2-carboxamide], under “Conditions B or C”, the “RORγt … % inhibition (value marked *)” value is on record as 110* % and the IC50 worked out at 0.034 µM.
For `C[C@H]1CC(F)(F)CN1C(=O)c1nc(C(=O)NCC(C)(C)O)sc1-c1cnc(NC2(C)CCC2)cc1C(F)(F)F` [Example 141, (S)-4-(4,4-Difluoro-2-methylpyrrolidine-1-carbonyl)-N-(2-hydroxy-2-methylpropyl)-5-(6-((1-methylcyclobutyl)amino)-4-(trifluoromethyl)pyridin-3-yl)thiazole-2-carboxamide], in that order: 100* % and 0.023 µM.
In the case of `O=C(N[C@H]1C[C@H](O)C1)c1nc(C(=O)N2C3CCC2CC3)c(-c2cnc(N[C@@H](C3CC3)C(F)(F)F)cc2C(F)F)s1` [Example 318, 4-((1s,4s)-7-Azabicyclo[2.2.1]heptane-7-carbonyl)-5-(6-(((S)-1-cyclopropyl-2,2,2-trifluoroethyl)amino)-4-(difluoromethyl)pyridin-3-yl)-N-((1r,3S)-3-hydroxycyclobutyl)thiazole-2-carboxamide], the IC50 came out at 0.028 µM. In addition, for the setting “at 3 μM compound concentration, read-out: RORγt (FL) Reporter Assay B or C, % inhibition”, the inhibition at 3 µM is 86%.
On to `C[C@H](Nc1cc(C(F)(F)F)c(-c2sc(C(=O)NCC(C)(C)O)nc2C(=O)N2CCC[C@@H]2C)cn1)C1CC1` [Example 40, 5-(6-(((S)-1-Cyclopropylethyl)amino)-4-(trifluoromethyl)pyridin-3-yl)-N-(2-hydroxy-2-methylpropyl)-4-((S)-2-methylpyrrolidine-1-carbonyl)thiazole-2-carboxamide], for which the inhibition at 6 µM was 102%. Where the note is “Conditions B or C”, the IC50 was determined as 0.013 µM.
As to `C[C@H]1CCCN1C(=O)c1nc(C(=O)NCC(C)(C)O)sc1-c1cnc(NC(C)(C)C)cc1C(F)(F)F` [Example 52, (S)-5-(6-(tert-Butylamino)-4-(trifluoromethyl)pyridin-3-yl)-N-(2-hydroxy-2-methylpropyl)-4-(2-methylpyrrolidine-1-carbonyl)thiazole-2-carboxamide], under “Conditions B or C”, the “RORγt … % inhibition (value marked *)” value is given as 106* % and the half-maximal inhibitory concentration (IC50) amounted to 0.0088 µM.
As to `C[C@H](Nc1cc(C(F)(F)F)c(-c2sc(C(=O)NCC(C)(C)O)nc2C(=O)N2CC(F)(F)C[C@@H]2C)cn1)C1CC1` [Example 142, 5-(6-(((S)-1-Cyclopropylethyl)amino)-4-(trifluormethyl)pyridin-3-yl)-4-((S)-4,4-difluoro-2-methylpyrrolidine-1-carbonyl)-N-(2-hydroxy-2-methylpropyl)thiazole-2-carboxamide], under “Conditions B or C”, the “RORγt … % inhibition (value marked *)” value is 109* % and the IC50 turned out to be 0.027 µM.
For `C[C@H](Nc1cc(C(F)F)c(-c2sc(C(=O)NCC(C)(C)O)nc2C(=O)N2CCCC[C@@H]2C)cn1)C(F)(F)F` [Example 144], in that order: 106* % and 0.076 µM.
As for `C[C@H](Nc1cc(C(F)F)c(-c2sc(C(=O)NCC(C)(C)O)nc2C(=O)N2CC(F)(F)C[C@@H]2C)cn1)C(F)(F)F` [Example 135], under “Conditions B or C”, the “RORγt … % inhibition (value marked *)” value was 100* % and the IC50 is 0.039 µM.
The like results for `C[C@H]1CCCN1C(=O)c1nc(C(=O)NCC(C)(C)O)sc1-c1cnc(NCC(C)(C)C)cc1C(F)(F)F` [Example 87, (S)—N-(2-Hydroxy-2-methylpropyl)-4-(2-methylpyrrolidine-1-carbonyl)-5-(6-(neopentylamino)-4-(trifluoromethyl)pyridin-3-yl)thiazole-2-carboxamide] were, in that order, 140* % and 0.029 µM.
`CC(C)(O)CNC(=O)c1nc(C(=O)N2C3CCC2CC3)c(-c2cnc(NCC(C)(C)C(F)(F)F)cc2C(F)(F)F)s1` [Example 122, 4-((1s,4s)-7-Azabicyclo[2.2.1]heptane-7-carbonyl)-N-(2-hydroxy-2-methylpropyl)-5-(6-((3,3,3-trifluoro-2,2-dimethylpropyl)amino)-4-(trifluoromethyl)pyridin-3-yl)thiazole-2-carboxamide]: where the note is “Conditions B or C”, the “RORγt … % inhibition (value marked *)” value is given as 102* % and the IC50 stood at 0.033 µM.
